In publication PMC6982876, “Synthesis of Novel Benzodifuranyl; 1,3,5-Triazines; 1,3,5-Oxadiazepines; and Thiazolopyrimidines Derived from Visnaginone and Khellinone as Anti-Inflammatory and Analgesic Agents” (Molecules, 2020):
Marks after values point to notes of the source that are not given here.

What was measured:
[1] = molecular target: T1, human recombinant COX-2 (Homo sapiens, UniProt P35354); assay: In vitro COX inhibitor screening assay (EIA kit, Cayman), COX-2; type: biochemical; conditions: for COX2 (SI) selectivity index: COX-1 IC50 / COX-2 IC50; for IC50: COX-2, mean of two determinations, enzyme kit, read-out: COX2 IC50
T1 construct: purchased Cayman Chemical, Ann Arbor, MI, USA 560131
T1 sequence (P35354 18-604): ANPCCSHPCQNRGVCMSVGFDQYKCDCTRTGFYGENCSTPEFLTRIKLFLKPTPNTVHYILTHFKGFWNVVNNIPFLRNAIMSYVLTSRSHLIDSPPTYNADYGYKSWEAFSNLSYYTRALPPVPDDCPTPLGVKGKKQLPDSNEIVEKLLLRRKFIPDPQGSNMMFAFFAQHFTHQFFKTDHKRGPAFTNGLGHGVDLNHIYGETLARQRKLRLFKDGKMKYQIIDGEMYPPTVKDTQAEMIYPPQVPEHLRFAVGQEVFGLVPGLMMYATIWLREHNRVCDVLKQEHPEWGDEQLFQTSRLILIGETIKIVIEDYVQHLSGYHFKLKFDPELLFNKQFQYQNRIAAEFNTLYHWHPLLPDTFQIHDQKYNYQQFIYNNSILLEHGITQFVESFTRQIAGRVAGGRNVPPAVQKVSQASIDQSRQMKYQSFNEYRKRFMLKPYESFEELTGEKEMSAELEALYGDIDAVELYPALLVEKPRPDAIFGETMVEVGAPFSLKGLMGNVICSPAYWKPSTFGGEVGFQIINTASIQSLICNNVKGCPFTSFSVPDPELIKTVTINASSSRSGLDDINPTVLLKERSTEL
Experimental: (§1) Furthermore, the selectivity index for COX-2 (COX-1 IC50 / COX-2 IC50) was calculated for the compounds.

[2] = molecular target: T2, ovine COX-1 (Ovis aries, UniProt P05979); assay: In vitro COX inhibitor screening assay (EIA kit, Cayman), COX-1; type: biochemical; conditions: mean of two determinations, enzyme kit, read-out: COX1 IC50
T2 construct: purchased Cayman Chemical, Ann Arbor, MI, USA 560131
T2 sequence (P05979 25-600): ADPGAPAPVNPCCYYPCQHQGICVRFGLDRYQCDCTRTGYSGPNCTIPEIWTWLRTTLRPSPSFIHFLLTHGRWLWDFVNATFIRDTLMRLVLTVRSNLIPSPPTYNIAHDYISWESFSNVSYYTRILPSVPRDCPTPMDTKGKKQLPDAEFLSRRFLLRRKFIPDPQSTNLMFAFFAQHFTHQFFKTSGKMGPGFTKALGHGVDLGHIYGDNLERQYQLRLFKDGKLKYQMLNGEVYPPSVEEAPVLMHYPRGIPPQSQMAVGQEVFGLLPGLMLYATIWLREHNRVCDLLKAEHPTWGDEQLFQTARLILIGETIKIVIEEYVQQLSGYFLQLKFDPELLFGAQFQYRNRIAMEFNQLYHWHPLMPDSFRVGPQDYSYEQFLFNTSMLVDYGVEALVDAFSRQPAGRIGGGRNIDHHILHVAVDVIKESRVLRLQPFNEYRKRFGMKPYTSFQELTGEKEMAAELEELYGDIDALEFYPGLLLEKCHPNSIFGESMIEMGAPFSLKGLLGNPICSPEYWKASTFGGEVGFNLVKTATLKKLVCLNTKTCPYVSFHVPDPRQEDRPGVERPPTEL
Experimental: as §1

[3] = test system: carrageenan-induced paw edema in rats; assay: Carrageenan-induced paw edema (anti-inflammatory activity); type: in vivo; conditions: 10 mg/kg oral; for % Change in Paw Height (Mean ± SEM): n = 5
Experimental: Albino rats (150–180 g) were used. The rats were divided into 11 experimental groups of five rats each. One hour after oral administration of the compounds (10 mg/kg), 0.1 mL of 1% carrageenan solution was injected in the left hind paw of each animal. Rat paw volumes were measured with a digital caliber plethysmometer (UGO Basile, Varese, Italy) used to measure inflammation height at 0, 1, 2, and 3 h after carrageenan injection. The percentage increase in inflammation in the left hind paw, in comparison to the uninjected right hind paw, was determined, calculated, and expressed as the amount of inflammation. […] The anti-inflammatory activity of the selected analgesic compounds after 3 h was expressed as percentage inhibition of edema, which was calculated according to the following equation: (2) Inhibition of edema (%) =Vcont−Vtest/Vcont×100* where V cont is the edema volume in the control group, and V test is the edema volume in the group of the screened compound.

[4] = test system: acetic acid-induced writhing in mice; assay: Acetic acid-induced writhing test (analgesic activity); type: in vivo; conditions: 10 mg/kg p.o.; for Analgesic Activity (% protection): writhing test; for Writhing Number in 20 min (Mean ± SEM): acetic acid 1 h after dosing
Experimental: The analgesic activity of the compounds was performed using the writhing test as described by Gawade et al.. Mice weight ranged from 25 to 30 g. Then, mice were divided into 18 different groups, each containing five animals. The animals fasted for 8 h before the experiment. Administration of the compounds (10 mg/kg, p.o.) was performed orally. Equal doses of diclofenac as the reference drug and saline as a negative control were also administrated orally. Writhing was induced one hour after compound administration by using 0.1 mL of 1% glacial acetic acid at a volume of 0.1 mL/10 g body weight. The number of writhing responses (stretching of the abdomen, extension of hind limbs, twisting of the trunk, and elongation of the body) observed was counted for 20 min. The protection percentile against acetic acid-induced writhing was calculated according to the following formula: (1) Analgesic activity (%) =n−n′/n×100* where n is the mean number of writhes of the control group, and n’ is the mean number of writhes of the tested compound group.

Row | SMILES | COX2 (SI) selectivity index [1] | IC50 [1] [µM] | melting point [°C] | IC50 [2] [µM] | % Change in Paw Height (Mean ± SEM) ([3]; 2 hr after carrageenan) | % Change in Paw Height (Mean ± SEM) ([3]; 3 hr after carrageenan) | Analgesic Activity (% protection) ([4]; n = 5) [%] | % Change in Paw Height (Mean ± SEM) ([3]; 1 hr after carrageenan) | Anti-Inflammatory Activity (% Inhibition of Edema) ([3]; 3 hr after carrageenan) [%] | Writhing Number in 20 min (Mean ± SEM) ([4]; n = 5) | Analgesic Activity (% protection) ([4]; n = 5, 10 mg/kg) | Analgesic Activity (% protection) ([4]; n = 5, listed as sodium diclofenac, 10 mg/kg) [%]
1 | COc1c(C(C)=O)c(OCC(=O)Nc2cc(=O)[nH]c(=S)[nH]2)cc2occc12 [Compound 4a, 2-((5-acetyl-4-methoxybenzofuran-6-yl)oxy)-N-(6-oxo-2-thioxo-1,2,3,6-tetrahydropyrimidin-4-yl) acetamide] | 41 | 0.46 | 170 to 172 | 18.8 | 0.40 ± 0.02 ^a % | 0.49 ± 0.02 ^a % | 18 ± 1.20 |  |  |  |  | 
2 | COc1c(C(C)=O)c(OCC(=O)Nc2cc(=O)[nH]c(=S)[nH]2)c(OC)c2occc12 [Compound 4b, 2-((5-acetyl-4,7-dimethoxybenzofuran-6-yl)oxy)-N-(6-oxo-2-thioxo-1,2,3,6-tetrahydropyrimidin-4-yl) acetamide] | 45 | 0.411 | 186 to 188 | 18.5 | 0.38 ± 0.03 ^a % | 0.47 ± 0.01 ^a % | 19 ± 1.30 | 0.47 ± 0.04 ^a % | 26 | 56 ± 1.2 ^a,b |  | 
3 | COc1c2ccoc2cc2oc(C(=O)Nc3cc(=O)[nH]c(=S)[nH]3)c(C)c12 [Compound 5a, 4-methoxy-3-methyl-N-(6-oxo-2-thioxo-1,2,3,6-tetrahydropyrimidin-4-yl) benzo [1,2-b: 5,4-b`] difuran-2-carboxamide] | 48 | 0.375 | 245 to 247 | 18.1 | 0.36 ± 0.02 ^a % | 0.46 ± 0.02 ^a % | 21 ± 2.10 | 0.45 ± 0.03 ^a % | 28 | 54 ± 1.6 ^a,b |  | 
4 | COc1c2occc2c(OC)c2c(C)c(C(=O)Nc3cc(=O)[nH]c(=S)[nH]3)oc12 [Compound 5b, 4,8-dimethoxy-3-methyl-N-(6-oxo-2-thioxo-1,2,3,6-tetrahydropyrimidin-4-yl) benzo [1,2-b: 5,4-b`] difuran-2-carboxamide] | 50 | 0.36 | 266 to 268 | 17.9 | 0.34 ± 0.01 ^a % | 0.44 ± 0.03 ^a % | 23 ± 0.70 | 0.42 ± 0.04 ^a % | 30 | 52 ± 1.4 ^a,b |  | 
5 | COc1c2ccoc2cc2oc(C(=O)Nc3cc(=O)[nH]c(SCC(=O)O)n3)c(C)c12 [Compound 6a, 2-((4-(4-methoxy-3-methylbenzo [1,2-b: 5,4-b`]difuran-2-carboxamido)-6-oxo-1,6-dihydropyrimidin-2-yl)thio) acetic acid] | 51 | 0.345 | 278 to 280 | 17.5 | 0.32 ± 0.02 ^a % | 0.41 ± 0.02 ^a % | 25 ± 0.50 | 0.39 ± 0.01 ^a % | 35 | 50 ± 1.6 ^a,b |  | 
6 | COc1c2occc2c(OC)c2c(C)c(C(=O)Nc3cc(=O)[nH]c(SCC(=O)O)n3)oc12 [Compound 6b, 2-((4-(4,8-dimethoxy-3-methylbenzo [1,2-b: 5,4-b`]difuran-2-carboxamido)-6-oxo-1,6-dihydropyrimidin-2-yl)thio) acetic acid] | 55 | 0.311 | 293 to 295 | 17.1 | 0.31 ± 0.04 ^a % | 0.39 ± 0.01 ^a % | 26 ± 0.80 | 0.38 ± 0.03 ^a % | 38 | 49 ± 1.2 ^a,b |  | 
7 | COc1c2ccoc2cc2oc(C(=O)Nc3cc(=O)n4c(n3)SCC4=O)c(C)c12 [Compound 7a, N-(3,5-dioxo-2,3-dihydro-5H-thiazolo [3,2-a]pyrimidin-7-yl)-4-methoxy-3-methylbenzo [1,2-b: 5,4-b`] difuran-2-carboxamide] | 79 | 0.101 | 308 to 310 | 7.95 | 0.26 ± 0.02 ^a % | 0.30 ± 0.02 ^a % | 33 ± 1.70 | 0.31 ± 0.01 ^a % | 50 | 42 ± 1.8 ^a,b |  | 
8 | O=C(O)Cc1ccccc1Nc1c(Cl)cccc1Cl [Diclofenac, reference compound] |  |  |  |  | 0.13 ± 0.02 ^a % | 0.20 ± 0.01 ^a % |  |  | 63 | 25 ± 1.2 ^a | 51 ± 1.15 ^a % | 51
